The subject of data set [1] is Escherichia Coli (E. coli) (Gram-negative). Kind of data set: Killing curves / antimicrobial activity on E. coli. The format is cell-based. The method, then:
(§1) In order to investigate the antimicrobial activity of the nanoparticles, a series of biological experiments were designed and carried out on two common bacterial pathogens, Escherichia Coli (E. coli) (Gram-negative) and Staphylococcus Aureus (S. aureus) (Gram-positive). Killing curves were determined in triplicate using starting inocula of 10^6 CFU mL^−1. Fresh, overnight growths of bacteria in TSB or TSB-Glu were diluted as necessary to produce the desired starting inocula in 10 mL of medium. T-SNPs and triclosan were tested in concentration ranges from 0 to 50 μg mL^−1 and 0 to 1 μg mL^−1, respectively. Unloaded SNPs were added at the highest tested concentration (50 μg mL^−1). TTESPC was previously dissolved in dimethyl sulfoxide (DMSO) and added to the media at a concentration of 50 μg mL^−1. Samples (100 μL) were removed from each well every 2 h and diluted appropriately in saline. Colony-forming units were determined by spotting 5 μL samples in triplicate on Luria-Bertani agar plates after 24 h incubation at 37° C. To confirm that the antimicrobial properties of the T-SNPs were mediated by the sole release of triclosan, the triclosan-resistant strain of E. coli, RJH108, was exposed to the highest concentration of T-SNPs tested (50 μg mL^−1). The viability was determined by using the same experimental protocol as described above.
(§2) Despite the similar MICs, a difference in the sensitivity of these strains to the T-SNPs treatment was observed. […] Then, the nanoparticles were centrifuged, filtered and the supernatant was incubated separately with E. coli and S. aureus and their growth was monitored. […]
(§3) The MIC of free triclosan that affected the growth of the two types of bacteria was measured (FIGS. 11A-B). […] As calculated from the elemental analysis, the triclosan constituted only […] of the nanoparticles, meaning that the highest concentration of nanoparticles taken for the experiments, 50 μg mL^−1, encompassed only 0.041 μg mL^1 of covalently bound triclosan. […]

Data set [2] relates to Staphylococcus Aureus (S. aureus) (Gram-positive). The data set can be described thus: Killing curves / antimicrobial activity on S. aureus. The format is cell-based. The method, then:
as §1, §2, §3

The conditions of data set [3]: cited from earlier work.

≈ marks a conversion by molar mass, not a printed value.

This is an account of results in patent US20120183619A1, “TRICLOSAN DERIVATIVES AND NANOPARTICLES COMPRISING SAME” (BAR ILAN UNIVERSITY, priority 2011, published 2012).

On to `CCO[Si](CCCNC(=O)Oc1cc(Cl)ccc1Oc1ccc(Cl)cc1Cl)(OCC)OCC` [TTESPC, 5-chloro-2-(2,4-dichlorophenoxy)phenyl (3-(triethoxysilyl)propyl)carbamate], for which the “antibacterial activity (control)” value in data set [1] (E. coli, 50 μg mL^−1, dissolved in DMSO) is reported as “no antibacterial activity was observed”; in data set [2] (S. aureus, 50 μg mL^−1, dissolved in DMSO), “no antibacterial activity was observed”.

`Oc1cc(Cl)ccc1Oc1ccc(Cl)cc1Cl` [triclosan, 5-chloro-2-(2,4-dichlorophenoxy)phenol]: the “effect on bacterial growth at equal triclosan concentration” value was “only began to impede the bacterial growth” in data set [1] (E. coli, 0.041 μg mL^1 triclosan (50 μg mL^−1 nanoparticles)) and “only began to impede the bacterial growth” in data set [2] (S. aureus, 0.041 μg mL^1 triclosan (50 μg mL^−1 nanoparticles)). For the same compound, the MBC in data set [1] (Escherichia coli, read-out: minimal bactericidal concentration (MIC)) was found to be 0.1 µg/mL (≈ 0.345 µM); in data set [2] (Staphylococcus aureus, read-out: minimal bactericidal concentration (MIC)) it was 0.1 µg/mL (≈ 0.345 µM). In data set [3] (at up to 200° C.), the “chemical stability (time)” value is “up to 2 h”. Also, the “solubility in aqueous solution” value in data set [3] (unless the pH is alkaline) is “fairly insoluble”.
